The record followed here is patent US20120122816A1, “COMPOSITIONS AND METHODS FOR ORGAN PRESERVATION” (Resolvyx Pharmaceuticals, Inc., priority 2009, published 2012).

The test system of data set [1] is ARPE-19 cells. Briefly: Oxidative stress-induced apoptosis (TNF-α/H2O2), Hoechst positive cells. Type of data set: cell-based. As to conditions: for oxidative stress-induced apoptosis, concentration dependence: 10, 30 and 50 nM; for inhibition at 0.03 µM / inhibition at 0.05 µM: Homo sapiens, ARPE-19; for inhibition at 0.05 µM: 50 nM compound. As for the experimental part:
(§1) The effects of compounds of the invention on apoptotic cell death induced by oxidative stress and on Il-1β induced pro-inflammatory COX-2 gene expression in ARPE-19 cells was measured using the following protocol.
(§2) 72 h grown cells in 6 well plates were serum starved for 8 h, and then oxidative stress was induced with TNF-α/H2O2 (600 μM) for 16 h. Cells were incubated with different concentrations of compound X, compound Z, and compound 48b. Apoptotic cell death was scored by Hoechst positive cells. COX-2 (−830) promoter construct, linked to luciferase reporter gene, was used to transfect ARPE-19 cells by Fugene-6. A β-galactosidase plasmid was co-transfected as transfection control. Transfected cells were serum starved, induced by Il-1β, and incubated with different concentrations of compound X, compound Z, and compound 48b. Luciferase assays were performed using luciferin as substrate.

In data set [2] the test system is COX-2 gene expression. Briefly: Il-1β induced COX-2 promoter luciferase reporter assay in ARPE-19 cells. Type of data set: cell-based. Conditions: FIG. 3. The protocol: as §1, §2
The subject of data set [3] is Rats. The experiment in a line: Protection against ischemia reperfusion injury (coronary artery occlusion and reperfusion). Type of data set: in vivo, rat. As for the experimental part: The ability of compound X, administered before reperfusion, to limit myocardial infarct size (IS) was measured using the following protocol.
Rats were anesthetized with ketamine and xylazine and underwent 30 min of coronary artery occlusion and 4 h of reperfusion. Just before reperfusion rats received compound X i.v. (0.03 mg/kg, 0.1 mg/kg or 0.3 mg/kg) or vehicle alone (control). Area at risk (AR) was assessed by blue dye and IS by triphenyltetrazoliumchloride (TTC) staining.

In data set [4] the test system is H9C2 cells. Briefly: Protection against hypoxia-reoxygenation injury (trypan blue uptake, MTT). Type of data set: cell-based, rat. The protocol:
The ability of compound X to protect cardiomyocytes against hypoxia-reoxygenation injury was measured using the following protocol.
H9C2 cells derived from embryonic rat heart tissue were incubated with compound X (0, 1, 10, 100, or 1000 nM). Cells were subjected to 16 h of hypoxia and 2 h of reoxygenation. Cell death was assessed by trypan blue (TB) uptake and cell viability by MTT (3-(4,5-dimethylthiazol-2-yl)-2,5-diphenyl tetrazolium bromide) assay.

The test system of data set [5] is H9C2 cells. The data set is described as above. Type of data set: cell-based, rat. This is another data set of the same source.
Setting [6] is: 30 nM compound, TNF-α/H2O2 (600 μM) 16 h, FIG. 1, read-out: inhibition of oxidative stress-induced apoptosis.
Setting [7] is: TNF-α/H2O2 (600 μM) 16 h, FIG. 1.
Where [8] appears, read: i.v. 0.03-0.3 mg/kg, anesthetized rats.

Each structure is given as a SMILES string. Where two headings read alike, the source gives them in different places.

With `CC/C=C\C[C@H](O)\C=C/C=C/C=C/[C@H](O)C/C=C\C/C=C\CCC(=O)O` [Compound 48b], the “oxidative stress-induced apoptosis, concentration dependence” value in data set [1] is “inhibit oxidative stress-induced apoptosis in a concentration dependent manner”. Further, the inhibition at 0.03 µM in data set [1] (setting [6]) was about 45%. For the same compound, the inhibition at 0.05 µM in data set [1] (setting [7]) was about 80%. Besides, the “expression of pro-inflammatory COX-2” value in data set [2] is on record as “stronger inhibition”.

With `CC[C@@H](O)/C=C/C=C\C[C@@H](O)/C=C/C=C/C=C\[C@@H](O)CCCC(=O)O` [Compound X], the “oxidative stress-induced apoptosis, concentration dependence” value in data set [1] was “inhibit oxidative stress-induced apoptosis in a concentration dependent manner”. For the same compound, the inhibition at 0.03 µM was about 20% in data set [1] (setting [6]) and about 60% in data set [1] (each compound at 30 nM, plus compound 48b, FIG. 2, read-out: combined inhibition of apoptosis upon addition of compound 48b). Besides, the inhibition at 0.05 µM in data set [1] (setting [7]) was about 30%. Moreover, the “expression of pro-inflammatory COX-2” value in data set [2] was “inhibited”. For the same compound, the “myocardial infarct size (IS)” value in data set [3] (i.v. 0.03, 0.1 or 0.3 mg/kg just before reperfusion, 30 min occlusion, 4 h reperfusion, FIG. 4) is “dose-dependently limited IS”. In addition, the heart rate result in data set [3] (setting [8]) was “did not affect”. In data set [3] (setting [8]), the mean blood pressure entry is recorded as “did not affect”. Besides, the “TB (%) (trypan blue positive cells)” value stood at 35.5 ± 0.4% in data set [4] (1.0 nM, 16 h hypoxia, 2 h reoxygenation); 30.3 ± 0.4% in data set [4] (10 nM, 16 h hypoxia, 2 h reoxygenation); 23.8 ± 0.9% in data set [4] (100 nM, 16 h hypoxia, 2 h reoxygenation); 24.1 ± 0.3% in data set [4] (1000 nM, 16 h hypoxia, 2 h reoxygenation). In addition, in data set [4] (Rattus norvegicus, H9c2, 1.0 nM, 16 h hypoxia, 2 h reoxygenation, read-out: MTT (%) (cell viability)), the viability at 0.001 µM came to 50.1 ± 0.8%. Further, the viability at 0.01 µM in data set [4] (Rattus norvegicus, H9c2, 10 nM, 16 h hypoxia, 2 h reoxygenation, read-out: MTT (%) (cell viability)) came to 62.6 ± 1.2%. In addition, the viability at 0.1 µM in data set [4] (Rattus norvegicus, H9c2, 100 nM, 16 h hypoxia, 2 h reoxygenation, read-out: MTT (%) (cell viability)) is 74.6 ± 0.9%. The viability at 1 µM in data set [4] (Rattus norvegicus, H9c2, 1000 nM, 16 h hypoxia, 2 h reoxygenation, read-out: MTT (%) (cell viability)) was 70.5 ± 0.5%. Besides, the “concentration of maximal effect” value in data set [4] (tested 1-1000 nM) is listed as 100 nM. In addition, in data set [5], the apoptosis result is on record as “decreased apoptosis”.
